This passage reports GI50 results from US10647680B2, “Urea compound, preparation method therefor and medical use thereof” (Ancureall Pharmaceutical (Shanghai) Co., Ltd., priority 2016, dated 2020).

The test system of assay [1] is MV4-11 (FLT3 ITD+/+ mutant type). As to the kind of experiment: In vitro growth inhibition (GI50), MV4-11. The class given is cell-based, human. The settings on record: Homo sapiens, MV4-11; Cell lines of leukemia; read-out: GI 50 MV4-11 FLT3 (ITD +/+).
In assay [2] the test system is MOLM-13 (FLT3 ITD+/− mutant type). Description: In vitro growth inhibition (GI50), MOLM-13. Format: cell-based, human. The conditions noted are these: Homo sapiens, MOLM-13; Cell lines of leukemia; read-out: GI 50 MOLM-13 FLT3 (ITD+/−).
The test system of a further assay is RS4; 11 (FLT3 wild type). Description: In vitro growth inhibition (GI50), RS4; 11. The class given is cell-based, human. The conditions noted are these: Homo sapiens, RS4-11; Cell lines of leukemia; read-out: GI 50 RS4: 11 FLT3 (WT).
Assay [3] deals with K562 (FLT3 negative expression, positive expression of BCR-ABL fusion protein). As to the kind of experiment: In vitro growth inhibition (GI50), K562. Format: cell-based. The settings on record: Homo sapiens, Cell lines of leukemia, read-out: GI 50 K562 BCR-ABL.
Assay [4] has as its system RAMOS (positive expression of Brutons tyrosine protein kinase). Description: In vitro growth inhibition (GI50), RAMOS. Format: cell-based. The settings on record: Homo sapiens, Cell lines of leukemia, read-out: GI 50 Ramos BTK.
In another assay the test system is U937 (FLT3 wild-type). Description: In vitro growth inhibition (GI50), U937. Format: cell-based. The settings on record: Homo sapiens, U-937; Cell lines of leukemia; read-out: GI 50 U937 FLT 3(WT).
The subject of assay [5] is Kasumi-1 (c-Kit N822K mutant type). Description: In vitro growth inhibition (GI50), Kasumi-1. The class given is cell-based. The conditions noted are these: Homo sapiens, Cell lines of leukemia, read-out: GI 50 Kasumi-1 Kit (N822K). In a few lines: (§1)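 Cells in RPMI1640 with 10% FBS, seeded at 5–10×10^4 cells/mL, exposed next day to compound at 5,000 nM down to 0.01 nM (2- or 10-fold dilutions, ≤1% solvent) for 3–5 days at 37 °C. CCK8 absorbance at 450 nm, growth rate relative to pre-treatment and solvent controls, GI50 from concentration–growth curve.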

Assay [6] deals with KG-1 (expressing FGFR1OP2-FGFR1 fusion protein). Description: In vitro growth inhibition (GI50), KG-1. The class given is cell-based. The settings on record: Homo sapiens; Cell lines of leukemia; read-out: GI 50 KG-1 FGFR1OP 2-FGFR1.
The subject of the next assay is HL-60 (FLT3 wild type). As to the kind of experiment: In vitro growth inhibition (GI50), HL-60. Format: cell-based. The settings on record: Homo sapiens, Cell lines of leukemia, read-out: GI 50 HL60 FLT3 (WT). In a few lines:
as §1

Assay [7] deals with OCI-AML3 (NPMc+ mutant type). As to the kind of experiment: In vitro growth inhibition (GI50), OCI-AML3. The class given is cell-based. The conditions noted are these: Homo sapiens, OCI-AML-3; Cell lines of leukemia; read-out: GI 50 OCI- AML3 NPMc+.

On to `CN1CCN(CCCOc2ccc3c(c2)ncn3-c2ccc(NC(=O)n3nc(C(C)(C)C)cc3N)cc2)CC1` [Compound 118, 5-amino-3-tert-butyl-pyrazol-1-carboxylic acid (4-{5-[3-(4-methyl-piperazin-1-yl)-propoxyl]-benzimidazol-1-yl}-phenyl)-amide], for which the GI50 in [1] is 0.001 to 0.01 µM; in assay [2], 0.001 to 0.01 µM; with RS4; 11 (FLT3 wild type), over 1 µM; in assay [3], over 1 µM; in assay [4], over 1 µM; in the assay with U937 (FLT3 wild-type), over 1 µM. Also, the GI50 (in [5]; in assay [6]; in the assay with HL-60 (FLT3 wild type); in [7]) was over 1 µM each time.

Turning to `CC(C)(C)c1cc(N)n(C(=O)Nc2ccc(-n3cnc4cc(OCCN5CCOCC5)ccc43)cc2)n1` [Compound 119, 5-amino-3-tert-butyl-pyrazol-1-carboxylic acid {4-[5-(2-morpholin-4-yl-ethoxyl)-benzimidazol-1-yl]-phenyl}-amide], the GI50 in [1] was 0.001 to 0.01 µM; in assay [2], 0.001 to 0.01 µM; in the assay with RS4; 11 (FLT3 wild type), over 1 µM; in assay [3], over 1 µM; in assay [4], over 1 µM; in the assay with U937 (FLT3 wild-type), over 1 µM. For the same molecule, the GI50 (in assay [5]; in assay [6]; in the assay with HL-60 (FLT3 wild type); in assay [7]) was over 1 µM throughout.

In the case of `COCCOc1ccc2c(c1)ncn2-c1ccc(NC(=O)n2nc(C(C)(C)C)cc2N)cc1` [Compound 120, 5-amino-3-tert-butyl-pyrazol-1-carboxylic acid {4-[5-(2-methoxyl-ethoxyl)-benzimidazol-1-yl]-phenyl}-amide], the GI50 in assay [1] is 0.001 to 0.01 µM; in [2] it was 0.001 to 0.01 µM; in the assay with RS4; 11 (FLT3 wild type), over 1 µM; in [3], over 1 µM; in [4] it was over 1 µM; with U937 (FLT3 wild-type), over 1 µM. For the same molecule, the GI50 in assay [5] was over 1 µM; in assay [6] it was 0.1 to 1 µM; with HL-60 (FLT3 wild type) it was over 1 µM; in assay [7], 0.1 to 1 µM.

As for `CC(C)(C)c1cc(N)n(C(=O)Nc2ccc(-n3cnc4cc(OCC5CCCO5)ccc43)cc2)n1` (stereo not shown) [Compound 123, 5-amino-3-tert-butyl-pyrazol-1-carboxylic acid {4-[5-(tetrahydro-furan-2-ylmethoxy)-benzimidazol-1-yl]-phenyl}-amide], the GI50 in [1] was 0.001 to 0.01 µM; in assay [2], 0.001 to 0.01 µM; in the assay on RS4; 11 (FLT3 wild type) it was over 1 µM; in assay [3], over 1 µM; in assay [4], over 1 µM; in the assay with U937 (FLT3 wild-type), over 1 µM. Also, the GI50 (in [5]; in assay [6]; in the assay with HL-60 (FLT3 wild type); in assay [7]) was over 1 µM each time.

Take `CCOC(=O)COc1ccc2c(c1)ncn2-c1ccc(NC(=O)n2nc(C(C)(C)C)cc2N)cc1` [Compound 124, ethyl (1-{4-[(5-amino-3-tert-butyl-pyrazol-1-carbonyl)-amino]-phenyl}-1H-benzimidazol-5-yloxy)-acetate]: the GI50 (in [1]; in assay [2]; in the assay with RS4; 11 (FLT3 wild type); in assay [3]; in [4]; in the assay with U937 (FLT3 wild-type)) was over 1 µM each time. In addition, the GI50 in assay [5] was over 1 µM; in assay [6], over 1 µM; in the assay on HL-60 (FLT3 wild type), over 1 µM; in assay [7], 0.1 to 1 µM.

In the case of `CC(C)(C)c1cc(N)n(C(=O)Nc2ccc(-n3cnc4cc(F)ccc43)cc2)n1` [Compound 125, 5-amino-3-tert-butyl-pyrazol-1-carboxylic acid [4-(5-fluoro-benzimidazol-1-yl)-phenyl]-amide], the GI50 in assay [1] is 0.01 to 0.1 µM; in assay [2], 0.01 to 0.1 µM; in the assay on RS4; 11 (FLT3 wild type), over 1 µM; in assay [3], over 1 µM; in assay [4], over 1 µM; with U937 (FLT3 wild-type) it was over 1 µM. Further, the GI50 (in [5]; in assay [6]; with HL-60 (FLT3 wild type); in [7]) was over 1 µM in each case.

In the case of `CC(C)(C)c1cc(N)n(C(=O)Nc2ccc(-n3cnc4cc(C(F)(F)F)ccc43)cc2)n1` [Compound 126, 5-amino-3-tert-butyl-pyrazol-1-carboxylic acid [4-(5-trifluoromethyl-benzimidazol-1-yl)-phenyl]-amide], the GI50 in assay [1] is 0.01 to 0.1 µM; in assay [2], 0.01 to 0.1 µM; in the assay with RS4; 11 (FLT3 wild type), over 1 µM; in assay [3], over 1 µM; in [4] it was over 1 µM; in the assay with U937 (FLT3 wild-type) it was over 1 µM. The GI50 (in assay [5]; in [6]; with HL-60 (FLT3 wild type); in assay [7]) was over 1 µM each time.

Take `CNC(=O)c1cc(Oc2ccc3c(c2)ncn3-c2ccc(NC(=O)n3nc(C(C)(C)C)cc3N)cc2)ccn1` [Compound 127, 4-(1-{4-[(5-amino-3-tert-butyl-pyrazol-1-carbonyl)-amino]-phenyl}-1H-benzimidazol-5-yloxy)-pyridin-2-carboxylic acid methylamide]: the GI50 is 0.1 to 1 µM in assay [1]; 0.1 to 1 µM in [2]; over 1 µM in the assay on RS4; 11 (FLT3 wild type); over 1 µM in assay [3]; over 1 µM in assay [4]; over 1 µM in the assay with U937 (FLT3 wild-type). Also, the GI50 (in assay [5]; in [6]; in the assay on HL-60 (FLT3 wild type); in assay [7]) was over 1 µM each time.

Take `COCCOc1ccc2ncn(-c3ccc(NC(=O)n4nc(C(C)(C)C)cc4N)cc3)c2c1` [Compound 128, 5-amino-3-tert-butyl-pyrazol-1-carboxylic acid {4-[6-(2-methoxyl-ethoxyl)-benzimidazol-1-yl]-phenyl}-amide]: the GI50 in [1] was 0.01 to 0.1 µM; in assay [2] it was 0.01 to 0.1 µM; in the assay with RS4; 11 (FLT3 wild type) it was over 1 µM; in assay [3] it was over 1 µM; in assay [4], over 1 µM; with U937 (FLT3 wild-type) it was over 1 µM. Moreover, the GI50 (in [5]; in assay [6]; in the assay on HL-60 (FLT3 wild type); in assay [7]) was over 1 µM in each case.

As to `CC(C)(C)c1ccn(C(=O)Nc2ccc(-n3cnc4ccccc43)cc2)n1` [Compound 130, 3-tert-butyl-pyrazol-1-carboxylic acid (4-benzimidazol-1-yl-phenyl)-amide], the GI50 was 0.1 to 1 µM in assay [1]; 0.1 to 1 µM in assay [2]; over 1 µM with RS4; 11 (FLT3 wild type); over 1 µM in [3]; over 1 µM in assay [4]; over 1 µM with U937 (FLT3 wild-type). The GI50 (in [5]; in [6]; in the assay on HL-60 (FLT3 wild type); in assay [7]) was over 1 µM throughout.

For the molecule `Cc1noc(NC(=O)Nc2ccc(-n3cnc4ccccc43)cc2)c1C` [Compound 131, 1-(4-benzimidazol-1-yl-phenyl)-3-(3,4-dimethyl-isoxazol-5-yl)-urea], the GI50 in assay [1] was 0.1 to 1 µM; in assay [2], 0.1 to 1 µM; with RS4; 11 (FLT3 wild type) it was over 1 µM; in assay [3] it was over 1 µM; in assay [4], over 1 µM; with U937 (FLT3 wild-type), over 1 µM. In addition, the GI50 (in assay [5]; in [6]; with HL-60 (FLT3 wild type); in assay [7]) was over 1 µM in each case.

For the molecule `CC(C)c1cc(NC(=O)Nc2ccc(-n3cnc4ccccc43)cc2)on1` [Compound 132, 1-(4-benzimidazol-1-yl-phenyl)-3-(3-isopropyl-isoxazol-5-yl)-urea], the GI50 in assay [1] is 0.01 to 0.1 µM; in assay [2], 0.01 to 0.1 µM; with RS4; 11 (FLT3 wild type), over 1 µM; in assay [3], over 1 µM; in assay [4], over 1 µM; with U937 (FLT3 wild-type), over 1 µM. For the same molecule, the GI50 in assay [5] was over 1 µM; in assay [6], over 1 µM; with HL-60 (FLT3 wild type) it was over 1 µM; in [7], 0.1 to 1 µM.

Turning to `CC(C)(C)c1cc(NC(=O)Nc2ccc(-n3cnc4ccccc43)cc2)on1` [Compound 133, 1-(4-benzimidazol-1-yl-phenyl)-3-(3-tert-butyl-isoxazol-5-yl)-urea], the GI50 was 0.001 to 0.01 µM in assay [1]; 0.001 to 0.01 µM in assay [2]; over 1 µM in the assay on RS4; 11 (FLT3 wild type); over 1 µM in assay [3]; over 1 µM in assay [4]; over 1 µM in the assay with U937 (FLT3 wild-type). Besides, the GI50 (in [5]; in assay [6]; in the assay with HL-60 (FLT3 wild type); in assay [7]) was over 1 µM throughout.
